Reference: PubChem BioAssay AID2060484 (Molecular Pharmacology Branch, DTP, NCI, 2025)

System: SUM149PT spheroids with HUVEC/MSC, viability
Assay: Anticancer human tumor SUM149PT cell line growth inhibition [GQUAD];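 note: spheroids exposed to drugs for seven days before readout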;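 for viability, T/C: percent viability relative to DMSO vehicle control taken as 100%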
Conditions: for IC50: curve of first compound; for viability, T/C: stronger effect = lower value; active = viability on the fitted dose curve at most 10% of control; inactive = the rest
Method in brief: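 Multi-cell-type spheroids of tumor cells with HUVEC and mesenchymal stem cells, treated with drug combinations. Concentrations descend in half-log steps from near clinical Cmax, or from 10 microM where Cmax is unknown; viability read-out.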

[1] = second compound 0.0316 µM, first compound 0.0316 µM
[2] = second compound 0.0316 µM, first compound 0.316 µM
[3] = second compound 0.1 µM, first compound 0.0316 µM
[4] = second compound 0.1 µM, first compound 0.316 µM
[5] = second compound 0.316 µM, first compound 0.0316 µM
[6] = second compound 0.316 µM, first compound 0.316 µM
[7] = second compound 1 µM, first compound 0.0316 µM
[8] = second compound 1 µM, first compound 0.316 µM
[9] = second compound 3.16 µM, first compound 0.0316 µM
[10] = second compound 3.16 µM, first compound 0.316 µM
[11] = second compound 10 µM, first compound 0.0316 µM
[12] = second compound 10 µM, first compound 0.316 µM
[13] = second compound 0.0316 µM, first compound 0.1 µM
[14] = second compound 0.0316 µM, first compound 1 µM
[15] = second compound 0.0316 µM, first compound 3.16 µM
[16] = second compound 0.0316 µM, first compound 10 µM
[17] = second compound 0.1 µM, first compound 0.1 µM
[18] = second compound 0.1 µM, first compound 1 µM
[19] = second compound 0.1 µM, first compound 3.16 µM
[20] = second compound 0.1 µM, first compound 10 µM
[21] = second compound 0.316 µM, first compound 0.1 µM
[22] = second compound 0.316 µM, first compound 1 µM
[23] = second compound 0.316 µM, first compound 3.16 µM
[24] = second compound 0.316 µM, first compound 10 µM
[25] = second compound 1 µM, first compound 0.1 µM
[26] = second compound 1 µM, first compound 1 µM
[27] = second compound 1 µM, first compound 3.16 µM
[28] = second compound 1 µM, first compound 10 µM
[29] = second compound 3.16 µM, first compound 0.1 µM
[30] = second compound 3.16 µM, first compound 1 µM
[31] = second compound 3.16 µM, first compound 3.16 µM
[32] = second compound 3.16 µM, first compound 10 µM
[33] = second compound 10 µM, first compound 0.1 µM
[34] = second compound 10 µM, first compound 1 µM
[35] = second compound 10 µM, first compound 3.16 µM
[36] = second compound 10 µM, first compound 10 µM

CCc1c2c(nc3ccc(O)cc13)-c1cc3c(c(=O)n1C2)COC(=O)[C@]3(O)CC + Cc1[nH]c2ccc(F)cc2c1-c1nc2c3cccnc3c3ncccc3c2[nH]1
2.3 nM: IC50 (second compound 1 µM)
2.58 nM: IC50 (second compound 0.1 µM)
1.54 nM: IC50 (second compound 3.16 µM)
1.88 nM: IC50 (second compound 0.316 µM)
inactive: viability, T/C (second compound 0.0316 µM, first compound 0.000999 µM) 67.2% | viability, T/C (second compound 0.0316 µM, first compound 0.00316 µM) 34.9% | viability, T/C (second compound 0.0316 µM, first compound 0.00999 µM) 43.4% | viability, T/C [1] 34.7% | viability, T/C (second compound 0.0316 µM, first compound 0.0999 µM) 32.4% | viability, T/C [2] 18.2% | viability, T/C (second compound 0.1 µM, first compound 0.000999 µM) 69.1% | viability, T/C (second compound 0.1 µM, first compound 0.00316 µM) 32.6% | viability, T/C (second compound 0.1 µM, first compound 0.00999 µM) 45.4% | viability, T/C [3] 34.2% | viability, T/C (second compound 0.1 µM, first compound 0.0999 µM) 27.8% | viability, T/C [4] 16.8% | viability, T/C (second compound 0.316 µM, first compound 0.000999 µM) 61.4% | viability, T/C (second compound 0.316 µM, first compound 0.00316 µM) 33.3% | viability, T/C (second compound 0.316 µM, first compound 0.00999 µM) 37.8% | viability, T/C [5] 38.2% | viability, T/C (second compound 0.316 µM, first compound 0.0999 µM) 27.2% | viability, T/C [6] 15.7% | viability, T/C (second compound 1 µM, first compound 0.000999 µM) 65.9% | viability, T/C (second compound 1 µM, first compound 0.00316 µM) 35.5% | viability, T/C (second compound 1 µM, first compound 0.00999 µM) 38.1% | viability, T/C [7] 40.8% | viability, T/C (second compound 1 µM, first compound 0.0999 µM) 25.5% | viability, T/C [8] 18.4% | viability, T/C (second compound 3.16 µM, first compound 0.000999 µM) 59.7% | viability, T/C (second compound 3.16 µM, first compound 0.00316 µM) 34.1% | viability, T/C (second compound 3.16 µM, first compound 0.00999 µM) 38.7% | viability, T/C [9] 39.7% | viability, T/C (second compound 3.16 µM, first compound 0.0999 µM) 27.6% | viability, T/C [10] 15.7% | viability, T/C (second compound 10 µM, first compound 0.000999 µM) 56.5% | viability, T/C (second compound 10 µM, first compound 0.00316 µM) 31.1% | viability, T/C (second compound 10 µM, first compound 0.00999 µM) 36.3% | viability, T/C [11] 39% | viability, T/C (second compound 10 µM, first compound 0.0999 µM) 25.3% | viability, T/C [12] 15.8%
2.34 nM: IC50 (second compound 0.0316 µM)
< 0.999 nM: IC50 (second compound 10 µM)

COc1cc(C2c3cc4c(cc3C(OC3OC5COC(C)OC5C(O)C3O)C3COC(=O)C23)OCO4)cc(OC)c1O (stereo unspecified) + Cc1[nH]c2ccc(F)cc2c1-c1nc2c3cccnc3c3ncccc3c2[nH]1
554 nM: IC50 (second compound 0.1 µM)
807 nM: IC50 (second compound 3.16 µM)
830 nM: IC50 (second compound 1 µM)
784 nM: IC50 (second compound 0.316 µM)
607 nM: IC50 (second compound 10 µM)
875 nM: IC50 (second compound 0.0316 µM)
inactive: viability, T/C [1] 102% | viability, T/C [13] 86.1% | viability, T/C [2] 56.3% | viability, T/C [14] 49.9% | viability, T/C [15] 38.5% | viability, T/C [16] 18.4% | viability, T/C [3] 105% | viability, T/C [17] 77.7% | viability, T/C [4] 50.7% | viability, T/C [18] 47.1% | viability, T/C [19] 36.8% | viability, T/C [20] 18.5% | viability, T/C [5] 93.2% | viability, T/C [21] 82.3% | viability, T/C [6] 54.4% | viability, T/C [22] 46.9% | viability, T/C [23] 38.2% | viability, T/C [24] 15.4% | viability, T/C [7] 97.6% | viability, T/C [25] 84.4% | viability, T/C [8] 51.3% | viability, T/C [26] 54% | viability, T/C [27] 36.5% | viability, T/C [28] 13.5% | viability, T/C [9] 88.2% | viability, T/C [29] 77.3% | viability, T/C [10] 58.2% | viability, T/C [30] 49.3% | viability, T/C [31] 33.3% | viability, T/C [32] 12.9% | viability, T/C [11] 81.9% | viability, T/C [33] 74.7% | viability, T/C [12] 48.2% | viability, T/C [34] 49.4% | viability, T/C [35] 33.5% | viability, T/C [36] 14.3%

Nc1ccn(C2OC(CO)C(O)C2(F)F)c(=O)n1 (stereo unspecified) + Cc1[nH]c2ccc(F)cc2c1-c1nc2c3cccnc3c3ncccc3c2[nH]1
83.3 nM: IC50 (second compound 0.1 µM)
68.4 nM: IC50 (second compound 3.16 µM)
75.8 nM: IC50 (second compound 0.0316 µM)
53.5 nM: IC50 (second compound 10 µM)
64.3 nM: IC50 (second compound 0.316 µM)
76.3 nM: IC50 (second compound 1 µM)
inactive: viability, T/C [1] 82.8% | viability, T/C [13] 39.7% | viability, T/C [2] 22.1% | viability, T/C [14] 20.7% | viability, T/C [15] 17% | viability, T/C [16] 14.1% | viability, T/C [3] 69% | viability, T/C [17] 46.4% | viability, T/C [4] 19% | viability, T/C [18] 17.5% | viability, T/C [19] 16% | viability, T/C [20] 13.9% | viability, T/C [5] 70.4% | viability, T/C [21] 37.5% | viability, T/C [6] 21.6% | viability, T/C [22] 18.7% | viability, T/C [23] 17.5% | viability, T/C [24] 12% | viability, T/C [7] 77.1% | viability, T/C [25] 41.1% | viability, T/C [8] 24.7% | viability, T/C [26] 21% | viability, T/C [27] 17.1% | viability, T/C [28] 12.1% | viability, T/C [9] 75.8% | viability, T/C [29] 37.5% | viability, T/C [10] 20.8% | viability, T/C [30] 18.7% | viability, T/C [31] 15.3% | viability, T/C [32] 12% | viability, T/C [11] 62.8% | viability, T/C [33] 35.3% | viability, T/C [12] 19.9% | viability, T/C [34] 22.1% | viability, T/C [35] 15.6% | viability, T/C [36] 11.6%
